Data published in US4897406A, “Rhodanine derivatives and pharmaceutical compositions” (Nisshin Flour Milling Co., Ltd., priority 1987, dated 1990).

How the values were obtained:
PGF2α = assay: Inhibition of contraction of excised bronchi of guinea pigs by PGF2α; conditions: 10^-5 M
[1] = system: excised bronchi of guinea pigs by the action of leukotriene D4; assay: Inhibitory activity on leukotrienes (contraction induced by leukotriene D4 in excised guinea pig bronchi); conditions: Conc. 10^-5 M, treatment before 10 minutes
Method: The compounds were evaluated for inhibitory activity on leukotrienes in the following test.
In this test, contraction was induced in excised bronchi of guinea pigs by the action of leukotriene D4, and inhibitory action of the present compounds after treatment before 10 minutes was measured and recorded via a transducer.

SRS-A = assay: Inhibitory activity on biosynthesis and release of chemical mediator (SRS-A), bioassay using excised ileum; design: species or system guinea pigs; conditions: Conc. 10^-5 M
Method: The compounds were evaluated for inhibitory activity on biosynthesis and release of a chemical mediator according to the method described by S. Watanabe-Kohno et al [J. Immunol., 125, 946 (1980)] and J. Augastein et al [Nature, 245, 215 (1973)]. In this test, SRS-A was used as a chemical mediator.
The chemical mediator contained in the reaction solution was determined according to bioassay using excised ileum of guinea pigs.
Percent Inhibition (%)=(1-A'/A)×100
A'=contraction level by the reaction solution treated with test compound
A=contraction level by the control reaction solution

[2] = system: contraction of excised bronchi of guinea pigs by histamine; assay: Inhibition of contraction of excised bronchi of guinea pigs by histamine; conditions: 10^-5 M
rats = assay: Toxicity to rats by oral administration; assay type: in vivo; conditions: 1000 mg/kg by oral administration

Row | Compound | inhibitory activity on contraction by PGF2α (PGF2α) | Percent Inhibition (inhibitory activity on leukotrienes) [1] | Percent Inhibition (biosynthesis and release of chemical mediator) (SRS-A) | inhibitory activity on contraction by histamine [2] | mortality (rats)
1 | COc1ccc(CCC(C)=C2SC(=S)NC2=O)cc1OC (single isomer, unassigned) [Isomer A of Example 12, 5-[3-(3,4-Dimethoxyphenyl)-1-methylpropylidene]-4-oxo-2-thioxothiazolidine] | 60-90% | 100.0% | 76.2% | 60-90% | no mortality was observed
2 | CCCC(C=Cc1ccc(C(=O)O)cc1)=C1SC(=S)NC1=O (single isomer, unassigned) [Isomer A of Example 17, 4-[3-(4-Oxo-2-thioxo-5-thiazolidinylidene)-1-hexen-1-yl]benzoic acid] |  | 84.7% |  |  | 
3 | COc1ccc(C=CC(C)=C2SC(=S)NC2=O)cc1OC (single isomer, unassigned) [Isomer B of Example 1] | 60-90% | 82.4% | 58.0% | 60-90% | 
4 | COc1ccc(CCC(C)=C2SC(=S)NC2=O)cc1OC (single isomer, unassigned) [Isomer B of Example 12, 5-[3-(3,4-Dimethoxyphenyl)-1-methylpropylidene]-4-oxo-2-thioxothiazolidine] | 60-90% | 97.9% | 70.6% | 60-90% | no mortality was observed
5 | CC(C=Cc1cccs1)=C1SC(=S)NC1=O (single isomer, unassigned) [Isomer B of Example 15, 5-[3-(2-Thienyl)-1-methyl-2-propenylidene]-4-oxo-2-thioxothiazolidine] | 60-90% |  |  | 60-90% | 
6 | CCCC(C=Cc1ccc(C(=O)O)cc1)=C1SC(=S)NC1=O (single isomer, unassigned) [Isomer B of Example 17, 4-[3-(4-Oxo-2-thioxo-5-thiazolidinylidene)-1-hexen-1-yl]benzoic acid] |  | 79.8% |  |  | 
7 | COc1ccc(C=CC(CCCC(=O)O)=C2SC(=S)NC2=O)cc1OC (single isomer, unassigned) [Isomer B of Example 19, 7-(3,4-dimethoxyphenyl)-5-(4-oxo-2-thioxo-5-thiazolidinilydene)-6-heptenoic acid] |  | 85.1% |  |  | 
8 | CCOC(=O)CCC(C=Cc1ccc(OC)c(OC)c1)=C1SC(=S)NC1=O [Compound of Example 14, Ethyl 6-(3,4-dimethoxyphenyl)-4-(4-oxo-2-thioxo-5-thiazolidinylidene)-5-hexenoate] | 60-90% | 98.1% |  | 60-90% | 
9 | CCOC(=O)CCCC(C=Cc1ccc(OC)c(OC)c1)=C1SC(=S)NC1=O [Ethyl ester compound of Example 19, ethyl 7(3,4-dimethoxyphenyl)-5-(4-oxo-2-thioxo-5-thiazolidinilydene)-6-heptenoate] |  | 90.5% |  |  | 
